Data set [1] is described as follows: Therapeutic index, ratio of CC50 for PBMC to IC50 for HIV1 TEK1. The conditions noted are these: read-out: Ratio CC50/IC50.
Data set [2] is described as follows: Cytotoxicity against PBMC cells. In kind it is cell-based. The conditions noted are these: human.
Data set [3] deals with Human immunodeficiency virus 1. The data set can be described thus: Antiviral activity against HIV1 NL4-3 in PBMC. Format: functional, organism-based. The conditions noted are these: Human immunodeficiency virus 1, NL4-3.
In data set [4] the test system is Human immunodeficiency virus 1. The data set can be described thus: Antiviral activity against HIV1 TEK1 in PBMC. In kind it is functional, organism-based. The conditions noted are these: Human immunodeficiency virus 1, TEK1.
A short description of data set [5]: Therapeutic index, ratio of CC50 for PBMC to IC50 for HIV1 NL4-3. The conditions noted are these: read-out: Ratio CC50/IC50.
The nature of data set [6]: Inhibition of HIV integrase 3'-processing activity by magnesium chloride-based assay. More on the design: species or system Human immunodeficiency virus.
The nature of data set [7]: Inhibition of HIV integrase strand transfer activity by magnesium chloride-based assay. Set-up: species or system Human immunodeficiency virus.

A value given as a limit tells only on which side of the number the result lay.

For the compound `O=C(/C=C(\O)P(=O)(O)O)c1cc(OCc2ccccc2)cc(OCc2ccccc2)c1`, the figures for the selectivity ratio in data set [1] and in data set [5] were 5.8 and 4, respectively. The compound also displayed a CC50 in data set [2] of 46.9 µM. Also, the IC50 stood at 11.8 µM in data set [3] and 8.1 µM in data set [4].
As for `O=C(/C=C(\O)P(=O)(O)O)c1cn(Cc2ccccc2)c(=O)n(Cc2ccccc2)c1=O`, the results for the selectivity ratio in data set [1] and in data set [5] were above 50 and above 62, respectively. The CC50 in data set [2] is above 200 µM. Further, the IC50 in data set [6] is above 333 µM; in data set [7] it was 20.2 µM; in data set [3], 3.2 µM; in data set [4], 4 µM.

For orientation: CC50 means the concentration giving 50% cytotoxicity. A high value points to lower toxicity to the cells. The IC50 is the concentration that inhibits the measured activity by half. Low values mean greater potency in that assay, high ones weaker potency in that assay.

Source of the values: ChEMBL document CHEMBL1148834, “A novel diketo phosphonic acid that exhibits specific, strand-transfer inhibition of HIV integrase and anti-HIV activity” (Bioorg Med Chem Lett, 2007).
